Earlier results, collected in patent publication US6858612B1, “Use of tetrahydropteridine derivatives as no synthase inhibitors” (Vasopharm Buitech GmbH, priority 1994, dated 2005).

Test system: NO synthases

## CC1CNc2nc(N)[nH]c(=O)c2N1 (centres unmarked) [6-methyl-5,6,7,8-tetrahydropterin]
Hevel and Marletta, Giovanelli et al. only at relatively high concentrations
  effect on NO synthase activity: increase in NO synthase activity

## C[C@H](O)[C@H](O)C1=Nc2c(nc(N)[nH]c2=O)NC1 [7,8-dihydrobiopterin]
Literature reports (Kwon et al., Giovanelli et al., Overfeld et al.), concentration-dependent
  effect on NO production: Stimulation of NO production
